Laboratory results: the C3SDB collision cross section collection

details: [M+2Na-H]+; instrument: DT; stepped-field

| collision cross section (N2) | Structure (SMILES) |
| --- | --- |
| 286.74 Å² | CCCCC/C=C\CCCCCCCC(=O)OC[C@H](COP(=O)(O)OCCN)OC(=O)CCCCCCCCCCCCCCCCCCCCC [PE(37:01)] |
| 280.9 Å² | CCCCC/C=C\C/C=C\CCCCCCCC(=O)O[C@H](COCCCCCCCCCCCCCCCCCC)COP(=O)(O)OCCN [PE(o36:02)] |
| 297.17 Å² | CCCCC/C=C\C/C=C\C/C=C\C/C=C\CCCC(=O)O[C@H](COC(=O)CCCCCCCCC/C=C\CCCCCCCC)COP(=O)(O)OC[C@H](N)C(=O)O [PS(40:05)] |
| 288.19 Å² | CC/C=C\C/C=C\C/C=C\C/C=C\C/C=C\C/C=C\CCC(=O)O[C@H](COCCCCCCCCCCCCCCCCCC)COP(=O)(O)OCCN [PE(o40:06)] |
| 282.4 Å² | CCCC/C=C\C/C=C\CCCCCCCC(=O)O[C@H](COCCCCCCCCCCCCCCCCCC)COP(=O)(O)OC[C@H](N)C(=O)O [PS(o35:02)] |

same assay, conditions: [M+HCOO]-; instrument: DT; stepped-field

| collision cross section (N2) | Structure (SMILES) |
| --- | --- |
| 286.82 Å² | CCCCCCCCCCCCCCCCCCCC(=O)OC[C@H](COP(=O)([O-])OCC[N+](C)(C)C)OC(=O)CCCCCCCCCCC [PC(32:00)] |

same assay, conditions: [M+H]+; instrument: DT; stepped-field

| collision cross section (N2) | Structure (SMILES) |
| --- | --- |
| 278.4 Å² | CCCCCCCCCCCCCCCCCCCC(=O)OC[C@H](COP(=O)([O-])OCC[N+](C)(C)C)OC(=O)CCCCCCCCCCC [PC(32:00)] |
| 274.98 Å² | CCCCC/C=C\C/C=C\CCCCCCCC(=O)O[C@H](COCCCCCCCCCCCCCCCCCC)COP(=O)(O)OCCN [PE(o36:02)] |
| 289.6 Å² | CCCCC/C=C\C/C=C\C/C=C\C/C=C\CCCC(=O)O[C@H](COC(=O)CCCCCCCCC/C=C\CCCCCCCC)COP(=O)(O)OC[C@H](N)C(=O)O [PS(40:05)] |

same assay, conditions: [M+K]+; instrument: DT; stepped-field

| collision cross section (N2) | Structure (SMILES) |
| --- | --- |
| 294.22 Å² | CCCCC/C=C\C/C=C\C/C=C\C/C=C\CCCC(=O)O[C@H](COC(=O)CCCCCCCCC/C=C\CCCCCCCC)COP(=O)(O)OC[C@H](N)C(=O)O [PS(40:05)] |

same assay, conditions: [M+Na]+; instrument: DT; stepped-field

| collision cross section (N2) | Structure (SMILES) |
| --- | --- |
| 278.95 Å² | CCCCCCCCCCCCC=CC[C@@H](O)[C@H](CO[C@@H]1O[C@H](CO)[C@@H](O)C(O)C1O)NC(=O)CCCCCCCCCCCCCCC (some centres undefined) [GlcCer(34:01)] |
| 280.56 Å² | CCCCCCCCCCCCCCCCCCCC(=O)OC[C@H](COP(=O)([O-])OCC[N+](C)(C)C)OC(=O)CCCCCCCCCCC [PC(32:00)] |
| 284.35 Å² | CCCCC/C=C\CCCCCCCC(=O)OC[C@H](COP(=O)(O)OCCN)OC(=O)CCCCCCCCCCCCCCCCCCCCC [PE(37:01)] |
| 280.37 Å² | CCCCC/C=C\C/C=C\CCCCCCCC(=O)O[C@H](COCCCCCCCCCCCCCCCCCC)COP(=O)(O)OCCN [PE(o36:02)] |
| 293.82 Å² | CCCCC/C=C\C/C=C\C/C=C\C/C=C\CCCC(=O)O[C@H](COC(=O)CCCCCCCCC/C=C\CCCCCCCC)COP(=O)(O)OC[C@H](N)C(=O)O [PS(40:05)] |
| 295.77 Å² | CC/C=C\C/C=C\C/C=C\C/C=C\C/C=C\CCCCCC(=O)O[C@H](COC(=O)CCCCCCCCCCCCCCCCC)COP(=O)([O-])OCC[N+](C)(C)C [PC(40:05)] |

same assay, conditions: [M-H]-; instrument: DT; stepped-field

| collision cross section (N2) | Structure (SMILES) |
| --- | --- |
| 290.27 Å² | CCCCC/C=C\C/C=C\C/C=C\C/C=C\CCCC(=O)O[C@H](COC(=O)CCCCCCCCC/C=C\CCCCCCCC)COP(=O)(O)OC[C@H](N)C(=O)O [PS(40:05)] |

details: [M+H]+; instrument: DT; stepped-field

| collision cross section (N2) | Structure (SMILES) |
| --- | --- |
| 141.13 Å² | N[C@@H](CSCC(=O)O)C(=O)O [S-Carboxymethyl-L-cysteine] |
| 142.63 Å² | CCCC[C@H](N)C(=O)O [L-Norleucine] |
| 177.25 Å² | CC(=O)[C@H]1CC[C@H]2[C@@H]3CC=C4C[C@@H](O)CC[C@]4(C)[C@H]3CC[C@]12C [Pregnenolone] |
| 135.69 Å² | Cc1ncc(CO)c(CO)c1O [Pyridoxine] |
| 198.86 Å² | C[N+](C)(C)CCOP(=O)([O-])OP(=O)(O)OC[C@H]1O[C@@H](n2ccc(N)nc2=O)[C@H](O)[C@@H]1O [Cytidine 5'-diphosphocholine] |

| Structure (SMILES) | collision cross section (N2) |
| --- | --- |
| Cn1cnc(CCN)c1 [1-Methylhistamine] | 122.56 Å² |
| C[C@]12CC[C@H]3[C@@H](CCC4=CC(=O)CC[C@@]43C)[C@@H]1CC[C@@H]2O [Testosterone] | 183.82 Å² |
| C[C@]12CCC(=O)C=C1CC[C@@H]1[C@@H]2CC[C@]2(C)C(=O)CC[C@@H]12 [Androstenedione] | 183.95 Å² |

same assay, conditions: [M+Na]+; instrument: DT; stepped-field

| collision cross section (N2) | Structure (SMILES) |
| --- | --- |
| 178.02 Å² | OC[C@H]1O[C@H](OC[C@H]2OC(O)[C@H](O)[C@@H](O)[C@@H]2O)[C@H](O)[C@@H](O)[C@@H]1O (some centres undefined) [Isomaltose] |
| 142.13 Å² | N[C@@H](CSCC(=O)O)C(=O)O [S-Carboxymethyl-L-cysteine] |
| 164.51 Å² | Cc1cn([C@H]2C[C@H](O)[C@@H](CO)O2)c(=O)[nH]c1=O [Thymidine] |
| 216.16 Å² | CC(=O)[C@H]1CC[C@H]2[C@@H]3CC=C4C[C@@H](O)CC[C@]4(C)[C@H]3CC[C@]12C [Pregnenolone] |
| 178.83 Å² | OC[C@H]1O[C@@H](O[C@H]2[C@H](O)[C@@H](O)[C@H](O)O[C@@H]2CO)[C@H](O)[C@@H](O)[C@H]1O [D-Lactose] |
| 148.49 Å² | Cc1ncc(CO)c(CO)c1O [Pyridoxine] |
| 208.98 Å² | C[N+](C)(C)CCOP(=O)([O-])OP(=O)(O)OC[C@H]1O[C@@H](n2ccc(N)nc2=O)[C@H](O)[C@@H]1O [Cytidine 5'-diphosphocholine] |

| Structure (SMILES) | collision cross section (N2) |
| --- | --- |
| C[C@]12CC[C@H]3[C@@H](CCC4=CC(=O)CC[C@@]43C)[C@@H]1CC[C@@H]2O [Testosterone] | 206.07 Å² |
| C[C@]12CCC(=O)C=C1CC[C@@H]1[C@@H]2CC[C@]2(C)C(=O)CC[C@@H]12 [Androstenedione] | 204.73 Å² |

details: [M+H]+; instrument: DT; single field, calibrated with Agilent tune mix (Agilent)

| collision cross section (N2) | Structure (SMILES) |
| --- | --- |
| 137.2 Å² | N[C@@H](CSCC(=O)O)C(=O)O [S-Carboxymethyl-L-cysteine] |
| 174 Å² | CC(=O)[C@H]1CC[C@H]2[C@@H]3CC=C4C[C@@H](O)CC[C@]4(C)[C@H]3CC[C@]12C [Pregnenolone] |
| 134.6 Å² | Cc1ncc(CO)c(CO)c1O [Pyridoxine] |
| 197.6 Å² | C[N+](C)(C)CCOP(=O)([O-])OP(=O)(O)OC[C@H]1O[C@@H](n2ccc(N)nc2=O)[C@H](O)[C@@H]1O [Cytidine 5'-diphosphocholine] |

| Structure (SMILES) | collision cross section (N2) |
| --- | --- |
| Cn1cnc(CCN)c1 [1-Methylhistamine] | 121.3 Å² |
| C[C@]12CC[C@H]3[C@@H](CCC4=CC(=O)CC[C@@]43C)[C@@H]1CC[C@@H]2O [Testosterone] | 172.7 Å² |
| C[C@]12CCC(=O)C=C1CC[C@@H]1[C@@H]2CC[C@]2(C)C(=O)CC[C@@H]12 [Androstenedione] | 173.3 Å² |

same assay, conditions: [M+Na]+; instrument: DT; single field, calibrated with Agilent tune mix (Agilent)

| collision cross section (N2) | Structure (SMILES) |
| --- | --- |
| 177.3 Å² | OC[C@H]1O[C@H](OC[C@H]2OC(O)[C@H](O)[C@@H](O)[C@@H]2O)[C@H](O)[C@@H](O)[C@@H]1O (some centres undefined) [Isomaltose] |
| 161 Å² | Cc1cn([C@H]2C[C@H](O)[C@@H](CO)O2)c(=O)[nH]c1=O [Thymidine] |
| 175.1 Å² | OC[C@H]1O[C@@H](O[C@H]2[C@H](O)[C@@H](O)[C@H](O)O[C@@H]2CO)[C@H](O)[C@@H](O)[C@H]1O [D-Lactose] |
